Where a name gives a salt, the structure may show the parent alone.

Series [1] relates to Pneumocystis carinii. The series can be described thus: animal or person. The note with it: for response vs control in vivo at 10 µmol/kg: 10.0 μmol/kg/day iv via tail vein, rats (4 rats for 3, 4, 9). In kind it is in vivo, Pneumocystis carinii; rat. From the text: The activity is expressed as the percent of cysts counted in treated groups as compared to untreated controls. All of the compounds in the initial screen were given by tail vein injection at a dose of 10 μmol/kg/day for 14 days. The test compounds were compared for efficacy with the standard anti-PCP compound, pentamidine, at one-half the dose of pentamidine. […] Among the 2,8-substituted derivatives, the diamidine 1 and the bis-N-isopropylamidine 2 were very potent. A dose response study was performed upon compound 2.
^c Expressed as μmol/kg/day, given iv via tail vain to at least 8
rats once daily for 14 days, unless stated otherwise.
^e Cysts/g lung counts were 69.18 (× 10^6) for the saline
control group and 0.51 (× 10^6) for the pentamidine group. These
scores were pooled across experiments involving compounds 1-9. Saline: n =
55; pentamidine: n = 52.
^g Doses given to 4 rats.
^h Doses given by oral gavage.

In series [2] the test system is Pneumocystis carinii. The series is described as follows: Activity against Pneumocystis carinii pneumonia (PCP) in the rat model, dibenzofuran dications (Example 2, Table 2). The class given is in vivo. The following applies: for response vs control in vivo at 22 µmol/kg / response vs control in vivo at 10 µmol/kg / response vs control in vivo at 33 µmol/kg: Pneumocystis carinii, 336 h, read-out: Pneumocystis carinii % Saline control ± std error; for response vs control in vivo at 22 µmol/kg / response vs control in vivo at 10 µmol/kg: iv; for response vs control in vivo at 33 µmol/kg: 33.0 μmol/kg/day by oral gavage. From the text:
Compounds 1-3 and 5-7 in the initial screen were given once daily by tail vein injection at a dose of 10 μmol/kg/day for 14 days, with activities compared to pentamidine at approximately one-half the effective iv dose of pentamidine, which is 22 μmol/kg/day.
Compounds 4 and 8 were synthesized to test if diamidoximes would be effective prodrugs of the dibenzofuran diamidines. Both the diamidoximes were screened for anti-P. carinii activity at 10 μmol/kg/day by tail vein injection and 33 μmol/kg/day by oral gavage for 14 days. […] Further studies of diamidoxime metabolism are being performed using cultured cell lines and cell-free enzyme preparations to understand more about the metabolic mechanisms of prodrug activation.
^a Dose units were μmol/kg/day. Each compound was administered to 8
rats once daily for 14 days. Doses marked with (*) were by oral gavage,
all others were i.v. via tail vein.
^c Cysts/g lung counts for the saline and pentamidine control groups
were pooled across experiments. Scores for each compound were reported as
% of the pooled saline scores. Saline: 47.53 × 10^6 cysts/g lung
(n = 45). Petamidine: 0.38 × 10^6 cysts/g lung (n = 42).

The test system of series [3] is Pneumocystis carinii. The note with it: rat, in vivo; cited from earlier work.
In another series the test system is whole cells. The series can be described thus: Conversion of diamidoxime to diamidine by whole cells (Example 2). The class given is in vitro ADME. The note with it: preliminary results.
Setting [4] is: Pneumocystis carinii, in Rattus norvegicus, iv, 336 h, once daily 14 days, read-out: Pneumocystis carinii % Saline control ± std error.
Where [5] appears, read: 10.0 μmol/kg/day i.v. via tail vein, once daily 14 days, 8 rats.

Take `NC(=NO)c1ccc2sc3ccc(C(N)=NO)cc3c2c1` [Compound 3]: the response vs control in vivo at 10 µmol/kg in the series on Pneumocystis carinii [1] (setting [4]) came out at 1.3 ± 0.84%.
As for `N=C(N)c1ccc(OCCCCCOc2ccc(C(=N)N)cc2)cc1` [Pentamidine, reference compound], the response vs control in vivo at 22 µmol/kg came out at 0.8 ± 0.17% in the series on Pneumocystis carinii [2] and 0.74 ± 0.12% in the series on Pneumocystis carinii [1] (Pneumocystis carinii, in Rattus norvegicus, iv, 336 h, read-out: Pneumocystis carinii % Saline control ± std error). Besides, the Cysts/g lung counts in the series with Pneumocystis carinii [2] (pentamidine control group pooled across experiments, n = 42) is 0.38 × 10^6 cysts/g lung; in the series on Pneumocystis carinii [1] (pentamidine group pooled across experiments, n = 52, 22.0 μmol/kg/day iv), 0.51 × 10^6 cysts/g lung.
For `O=S1(=O)c2ccc(C3=NCCN3)cc2-c2cc(C3=NCCN3)ccc21` [Compound 6], the response vs control in vivo at 10 µmol/kg with Pneumocystis carinii [1] (setting [4]) came to 93.5 ± 9.58%.
On to `c1cc2c(cc1C1=NCCN1)oc1cc(C3=NCCN3)ccc12` [Compound 6 (Example 2), 3,7-Di(2-imidazolinyl)dibenzofuran dihydrochloride], for which, in the series with Pneumocystis carinii [2] (setting [5]), the response vs control in vivo at 10 µmol/kg turned out to be 220 ± 39.3%.
For `CC(C)NC(=N)c1ccc2sc3ccc(C(=N)NC(C)C)cc3c2c1` [Compound 2], the response vs control in vivo at 0.1 µmol/kg in the series on Pneumocystis carinii [1] (Pneumocystis carinii, in Rattus norvegicus, iv, 336 h, 0.1 μmol/kg/day iv, once daily 14 days, rats, read-out: Pneumocystis carinii % Saline control ± std error) is 94.8 ± 28.3%. Also, the response vs control in vivo at 1 µmol/kg in the series on Pneumocystis carinii [1] (Pneumocystis carinii, in Rattus norvegicus, iv, 336 h, 1.0 μmol/kg/day iv, once daily 14 days, rats, read-out: Pneumocystis carinii % Saline control ± std error) came out at 12.8 ± 4.02%. Besides, the response vs control in vivo at 2.5 µmol/kg in the series with Pneumocystis carinii [1] (Pneumocystis carinii, in Rattus norvegicus, iv, 336 h, 2.5 μmol/kg/day iv, once daily 14 days, rats, read-out: Pneumocystis carinii % Saline control ± std error) was found to be 0.19 ± 0.1%. In the series with Pneumocystis carinii [1] (Pneumocystis carinii, in Rattus norvegicus, iv, 336 h, 5.0 μmol/kg/day iv, once daily 14 days, rats, read-out: Pneumocystis carinii % Saline control ± std error), the response vs control in vivo at 5 µmol/kg worked out at 0.04 ± 0.01%. In the series on Pneumocystis carinii [1] (setting [4]), the response vs control in vivo at 10 µmol/kg came to 0.01 ± 0.01%.
Turning to `c1cc2sc3ccc(C4=NCCN4)cc3c2cc1C1=NCCN1` [Compound 5], the response vs control in vivo at 10 µmol/kg with Pneumocystis carinii [1] (setting [4]) is 28 ± 12.7%.
As for `N=C(N)c1ccc2c(c1)oc1cc(C(=N)N)ccc12` [Compound 5 (Example 2), 3,7-Diamidinodibenzofuran dihydrochloride], the response vs control in vivo at 10 µmol/kg in the series with Pneumocystis carinii [2] (setting [5]) was 183 ± 38.3%.
Same read-out and setting: under `CC(C)NC(=N)c1ccc2oc3ccc(C(=N)NC(C)C)cc3c2c1` [Compound 3 (Example 2), 2,8-Di(N-isopropylamidino)dibenzofuran dihydrochloride] stands 0.5 ± 0.27%.
Turning to `NC(=NO)c1ccc2c(c1)oc1cc(C(N)=NO)ccc12` [Compound 8 (Example 2), 3,7-Di(A-hydroxylamidino)dibenzofuran dihydrochloride], the response vs control in vivo at 33 µmol/kg in the series on Pneumocystis carinii [2] (once daily 14 days, 8 rats) was found to be 150 ± 54%. The response vs control in vivo at 10 µmol/kg with Pneumocystis carinii [2] (setting [5]) stood at 166 ± 109%.
On to `CC(C)NC(=N)c1ccc2c(c1)oc1cc(C(=N)NC(C)C)ccc12` [Compound 7 (Example 2), 3,7-Di(isopropylamidino)dibenzofuran dihydrochloride], for which, in the series with Pneumocystis carinii [2] (setting [5]), the response vs control in vivo at 10 µmol/kg came out at 0.28 ± 0.27%.
For `CC(C)NC(=N)c1ccc2c(c1)sc1cc(C(=N)NC(C)C)ccc12` [Compound 8], in the series with Pneumocystis carinii [1] (setting [4]), the response vs control in vivo at 10 µmol/kg is 0.04 ± 0.02%.
On to `N=C(N)c1ccc2oc3ccc(C(=N)N)cc3c2c1` [Compound 1 (Example 2), 2,8-Diamidinodibenzofuran dihydrochloride], for which, in the series with Pneumocystis carinii [2], the response vs control in vivo at 10 µmol/kg was determined as 7.15 ± 3.81% and the response vs control in vivo at 22 µmol/kg came to 0.1 ± 0.02%.
Turning to `N=C(N)c1ccc2c(c1)sc1cc(C(=N)N)ccc12` [Compound 7], the response vs control in vivo at 10 µmol/kg in the series with Pneumocystis carinii [1] (setting [4]) amounted to 36 ± 9.59%.
`N/C(=N\O)c1ccc(OCCCCCOc2ccc(/C(N)=N/O)cc2)cc1` [Pentamidoxime, reference compound]: in the series with Pneumocystis carinii [3], the “prodrug behaviour (in words)” value is reported as “an effective prodrug”. Further, in the series on Pneumocystis carinii [2] (once daily 14 days, 8 rats), the response vs control in vivo at 33 µmol/kg was 13.8 ± 9.12%. Further, in the series with Pneumocystis carinii [2] (22.0 μmol/kg/day i.v. via tail vein, once daily 14 days, 8 rats), the response vs control in vivo at 22 µmol/kg is 0.11 ± 0.02%.
Turning to `Cl.Cl.N=C(NO)c1ccc2oc3ccc(C(=N)NO)cc3c2c1` [Compound 4 (Example 2), 2,8-Di(N-hydroxylamidino)dibenzofuran dihydrochloride], the response vs control in vivo at 33 µmol/kg in the series with Pneumocystis carinii [2] (once daily 14 days, 8 rats) stood at 45.1 ± 21.6%. Further, the response vs control in vivo at 10 µmol/kg with Pneumocystis carinii [2] (setting [5]) came out at 15.8 ± 14.6%. Moreover, the “conversion of diamidoxime to diamidine (in words)” value with whole cells is “less efficient than conversion of pentamidoxime to pentamidine by whole cells”.
With `N=C(N)c1ccc2sc3ccc(C(=N)N)cc3c2c1` [Compound 1], the response vs control in vivo at 10 µmol/kg with Pneumocystis carinii [1] (setting [4]) came to 0.1 ± 0.03%.
`c1cc2oc3ccc(C4=NCCN4)cc3c2cc1C1=NCCN1` [Compound 2 (Example 2), 2,8-Di(2-imidazolinyl)dibenzofuran dihydrochloride]: the response vs control in vivo at 10 µmol/kg in the series with Pneumocystis carinii [2] (setting [5]) was 97.4 ± 31.9%.
In the case of `Cl.Cl.N=C(NO)c1ccc2c(c1)sc1cc(C(=N)NO)ccc12` [Compound 9 (Example 1), 3,7-Bis(N-hydroxyamidino)dibenzothiophene dihydrochloride], the response vs control in vivo at 10 µmol/kg in the series with Pneumocystis carinii [1] (setting [4]) came to 112 ± 76.5%. In addition, in the series on Pneumocystis carinii [1] (Pneumocystis carinii, in Rattus norvegicus, po, 336 h, 33.0 μmol/kg/day by oral gavage, once daily 14 days, 4 rats, read-out: Pneumocystis carinii % Saline control ± std error), the response vs control in vivo at 33 µmol/kg was found to be 45.6 ± 26.1%. In addition, in the series on Pneumocystis carinii [1] (intravenous and oral administration), the “anti-PCP activity by both routes (in words)” value was “inactive by both intravenous and oral administration”.

(Values after patent publication US6172104A, “Dicationic dibenzofuran and dibenzothiophene compounds and methods of use thereof” (priority 1999, dated 2001).)
